Laboratory results as given in patent publication US20060148858A1, “1, 2-Azole derivatives with hypoglycemic and hypolipidemic activity” (priority 2002, published 2006).

What was measured:
[1] = target: T1, PPARδ-RXRα heterodimer (Homo sapiens, UniProt Q03181); experiment: PPARδ-RXRα heterodimer ligand activity, luciferase reporter in COS-1 transformant (Test Example 4); format: cell-based; conditions: COS-1 transformant (hPPARδ, hRXRα, reporter), 36-48 hours, concentration for 50% of the maximum fold induction
T1 construct: expressed in transfected cells; host or cells: COS-1
T1 sequence (Q03181 1-441): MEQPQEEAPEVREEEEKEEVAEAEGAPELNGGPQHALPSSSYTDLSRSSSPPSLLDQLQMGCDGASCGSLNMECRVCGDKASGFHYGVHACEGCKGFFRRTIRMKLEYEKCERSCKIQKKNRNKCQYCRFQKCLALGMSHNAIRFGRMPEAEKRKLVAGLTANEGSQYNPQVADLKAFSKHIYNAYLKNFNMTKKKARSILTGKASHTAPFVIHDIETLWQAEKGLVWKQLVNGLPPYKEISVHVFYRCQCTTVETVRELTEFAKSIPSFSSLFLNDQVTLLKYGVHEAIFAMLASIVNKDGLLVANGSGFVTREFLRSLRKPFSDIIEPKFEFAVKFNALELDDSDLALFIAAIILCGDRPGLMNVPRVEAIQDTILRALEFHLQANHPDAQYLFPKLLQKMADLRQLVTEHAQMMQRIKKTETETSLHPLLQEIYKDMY
T1 sequence (P19793 1-462 partner): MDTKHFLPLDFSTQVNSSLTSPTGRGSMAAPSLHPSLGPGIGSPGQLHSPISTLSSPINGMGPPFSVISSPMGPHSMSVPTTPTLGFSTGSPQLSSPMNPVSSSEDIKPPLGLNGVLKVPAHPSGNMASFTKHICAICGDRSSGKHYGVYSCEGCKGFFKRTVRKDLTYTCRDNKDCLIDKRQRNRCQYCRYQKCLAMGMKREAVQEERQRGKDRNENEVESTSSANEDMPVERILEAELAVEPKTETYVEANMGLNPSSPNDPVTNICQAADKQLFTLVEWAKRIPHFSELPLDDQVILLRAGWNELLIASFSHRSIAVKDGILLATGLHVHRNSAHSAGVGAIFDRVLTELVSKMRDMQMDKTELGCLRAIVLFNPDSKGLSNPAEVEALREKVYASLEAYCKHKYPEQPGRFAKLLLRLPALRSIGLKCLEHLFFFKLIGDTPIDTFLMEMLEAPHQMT
Description: The transformant obtained in Reference Example 9a was suspended in DMEM medium (produced by Life Technologies, Inc., USA) containing 0.1% fatty acid-free bovine serum albumin (BSA) (produced by Wako Pure Chemical Industries, Ltd.), and inoculate to each well of a 96-well white plate (produced by Corning Costar Corporation, USA) by 80 μl at 1×10^4 cells/well. Then the test compound (20 μl) was added and cultured at 37° C. under 5% CO2 for 36-48 hours. After removing the medium from the 96-well white plate, 40 μl of PIKKAGENE LT 7.5 (produced by Wako Pure Chemical Industries, Ltd.) diluted twice with HBSS (HANKS' BALANCED SALT SOLUTION)(produced by BIO WHITTAKER Inc., USA), was added. After stirring, the luciferase activity was determined using 1420 ARVO Multilabel Counter (produced by PerkinElmer Inc., USA).
A fold induction was calculated based on the luciferase activity of each test compound by taking the luciferase activity in the non-treatment group as 1. The values of the test compound concentration and the fold induction were analyzed using PRISM (produced by GraphPad Software Inc. USA) to calculate the EC50 values, the effective concentration of a test compound for 50% of the maximum fold induction.
COS-1 cells were inoculated to a 150 cm^2 cell culture flask (produced by Corning Costar Corporation, USA) at the density of 5×10^6 cells/50 ml, and cultured at 37° C. under 5% CO2 conditions for 24 hours. Subsequently, a DNA was introduced into the cell under the condition shown below using Lipofectamine (produced by Invitrogen, USA).
First, Lipofectamine (125 μl), PLUS Reagent (100 μl, produced by Invitrogen, USA), plasmid pMCMVneo-hPPARδ (2.5 μg) obtained in Reference Example 3a, plasmid pMCMVneo-hRXRα (2.5 μg) obtained in Reference Example 4a and reporter plasmid pGL3-4ERPP-TK neo (5 μg) obtained in Reference Example 5a, and pRL-tk (5 μg, produced by Promega, USA) were mixed with opti-MEM (5 ml, produced by Invitrogen, USA) to give a transfection mixture.
Then, the above-mentioned transfection mixture and opti-MEM (20 ml) were added to COS-1 cells washed with opti-MEM, and the cells were cultured at 37° C. under 5% CO2 conditions for 3 hours. DMEM medium (25 ml, produced by Life Technologies, Inc., USA) containing 0.1% fatty acid-free bovine serum albumin (BSA) (produced by Wako Pure Chemical Industries, Ltd.) was added to the obtained COS-1 cells, and the cells were cultured at 37° C. under 5% CO2 conditions for 18-24 hours to give a transformant.

SMILES	melting point [°C]	EC50 [1] [nM]
CCCc1nn(-c2ccc(C(F)(F)F)cn2)cc1CCCOc1ccc(CCC(=O)O)c(OC)c1 [Example 86, 3-[2-methoxy-4-(3-{3-propyl-1-[5-(trifluoromethyl)-2-pyridyl]-1H-pyrazol-4-yl}propoxy)phenyl]propionic acid]	114 to 115	1.5
CCCc1nn(-c2ccc(C(F)(F)F)cn2)cc1CCCOc1cc(CC(=O)O)ccc1F [Example 91, [4-fluoro-3-(3-{3-propyl-1-[5-(trifluoromethyl)-2-pyridyl]-1H-pyrazol-4-yl}propoxy)phenyl]acetic acid]	88 to 89	6
CCCc1nn(-c2ccc(C(F)(F)F)cn2)cc1CCCOc1cc(CCC(=O)O)cc(OC)c1 [Example 92, 3-[3-methoxy-5-(3-{3-propyl-1-[5-(trifluoromethyl)-2-pyridyl]-1H-pyrazol-4-yl}propoxy)phenyl]propionic acid]	98 to 99	1.9
CCCc1nn(-c2ccc(C(F)(F)F)cn2)cc1CCCOc1ccc(CC(=O)O)c(C)c1 [Example 94, [2-methyl-4-(3-{3-propyl-1-[5-(trifluoromethyl)-2-pyridyl]-1H-pyrazol-4-yl}propoxy)phenyl]acetic acid]	134 to 135	4
CCCc1nn(-c2ccc(C(F)(F)F)cn2)cc1CCCOc1ccc(CCC(=O)O)cc1OC [Example 96, 3-[3-methoxy-4-(3-{3-propyl-1-[5-(trifluoromethyl)-2-pyridyl]-1H-pyrazol-4-yl}propoxy)phenyl]propionic acid]	126 to 127	1.7
CCOc1cc(OCCCc2cn(-c3ccc(C(F)(F)F)cn3)nc2-c2ccccc2)ccc1CCC(=O)O [Example 99, 3-[2-ethoxy-4-(3-{3-phenyl-1-[5-(trifluoromethyl)-2-pyridinyl]-1H-pyrazol-4-yl}propoxy)phenyl]propanoic acid]	135 to 136	0.55
CCOc1nn(-c2ccc(C(F)(F)F)cc2)cc1CCCOc1cc(CCC(=O)O)n(-c2ccccc2)n1 [Example 111, 3-[3-(3-{3-ethoxy-1-[4-(trifluoromethyl)phenyl]-1H-pyrazol-4-yl}propoxy)-1-phenyl-1H-pyrazol-5-yl]propanoic acid]	126 to 127	6.1
CCOc1nn(-c2ccc(C(F)(F)F)cc2)cc1CCCOc1cccc(CC(=O)O)c1 [Example 113, [3-(3-{3-ethoxy-1-[4-(trifluoromethyl)phenyl]-1H-pyrazol-4-yl}propoxy)phenyl]acetic acid]	108 to 109	4.8
CCCOc1cc(OCCCc2cn(-c3ccc(C(F)(F)F)cn3)nc2OCC)ccc1CCC(=O)O [Example 117, 3-[4-(3-{3-ethoxy-1-[5-(trifluoromethyl)-2-pyridinyl]-1H-pyrazol-4-yl}propoxy)-2-propoxyphenyl]propanoic acid]	126 to 127	1.6
CCCCOc1cc(OCCCc2cn(-c3ccc(C(F)(F)F)cn3)nc2OCC)ccc1CCC(=O)O [Example 118, 3-[2-butoxy-4-{3-(3-ethoxy-1-[5-(trifluoromethyl)-2-pyridinyl]-1H-pyrazol-4-yl}propoxy)phenyl]propanoic acid]	123 to 124	7.2
COc1cc(OCc2cn(-c3ccc(C(F)(F)F)cn3)nc2C)ccc1CCC(=O)O [Example 122, 3-[2-methoxy-4-({3-methyl-1-[5-(trifluoromethyl)-2-pyridyl]-1H-pyrazol-4-yl}methoxy)phenyl]propionic acid]	158 to 159	4.9
Cc1cc(OCc2cn(-c3ccc(C(F)(F)F)cn3)nc2C)ccc1CCC(=O)O [Example 123, 3-[2-methyl-4-({3-methyl-1-[5-(trifluoromethyl)-2-pyridyl]-1H-pyrazol-4-yl}methoxy)phenyl]propionic acid]	144 to 145	2.9
